{"source": "patent US20210177824A1", "about": "“EXTENDED RELEASE FORMULATIONS FOR INTRA-ARTICULAR APPLICATIONS” (NOVARTIS AG, priority 2017, published 2021)", "format_in_all_cases": "physicochemical", "key": {"[1]": {"test": "pKa of Compound A", "settings": "weakly basic", "excerpt": "(§1) Compound A can be formulated as immediate release formulations for intra-articular injection. However, due to a high fluid exchange between the synovial fluid and the blood stream, immediate release formulations have a short synovial residence half-life and require frequent injections."}, "[2]": {"test": "Aqueous solubility of Compound A as a function of pH", "excerpt": "as §1"}, "[3]": {"test": "Particle size and surface area of micronized Compound A micro-crystals", "excerpt": "Compound A can be micronized using any methods known to those skilled in the art. Un-milled Compound A is subjected to a size reduction process to obtain particle size. The size reduction of Compound A can be performed using any known methods such as by jet-milling technology, and more particularly, by spiral jet-milling technology, fluidized bed opposed jet-milling technology or loop jet-milling technology.\nIn yet other embodiments, Compound A was micronized to form micro-crystals with maximal particle diameters characterized in Table 1."}}}
{"smiles": "O=C(Nc1ccc(Cl)c(Cl)c1)[C@@H]1[C@@H](c2ccncc2)[C@@H]2CC[C@H]1O2", "note": "[Compound A, N-(3,4-dichlorophenyl)-3-(pyridin-4-yl)-7-oxabicyclo[2.2.1] heptane-2-carboxamide]", "values": [{"measurement": "pKa", "setting": "[1]", "result": 5.2}, {"measurement": "pH dependence of solubility", "setting": "[2]", "result": "Solubility increases with decreasing pH"}, {"measurement": "Solubility in neutral pH and basic pH aqueous solutions", "setting": "[2]; neutral and basic pH", "result": "poorly soluble"}, {"measurement": "Particle size: D10", "setting": "[3]", "result": "≤1.4", "unit": "μm"}, {"measurement": "Particle size: D50", "setting": "[3]", "result": "≤6.1", "unit": "μm"}, {"measurement": "Particle size: D90", "setting": "[3]", "result": "≤29.7", "unit": "μm"}, {"measurement": "Surface area", "setting": "[3]", "result": 3, "unit": "m^2/g"}]}
